Earlier results, collected in patent US20250205255A1, “PHOSPHOLIPID COMPOSITIONS FOR TREATING INFECTIONS AND INFLAMMATION” (Celestial Therapeutics, Inc., priority 2022, published 2025).

Legend:
[1] = tested on: Toll-like receptor 4 (TLR4) interacting proteins CD14 and MD-2; conditions: through direct interactions with CD14 and MD-2
[2] = tested on: Respiratory Syncytial Virus (RSV); conditions: bronchial epithelial cells

## CCCCCCCC/C=C\CCCCCCCC(=O)O[C@H](COC(=O)CCCCCCCCCCCCCCC)COP(=O)(O)OCC(O)CO (mixture of isomers) [POPG, 1-Palmitoy-2-loleoyl-sn-glycerol-3-phospho-(1′-rac-glycerol)]
[1]
  inflammatory responses induced by lipopolysaccharide: markedly attenuate
[2]
  cytopathic effects induced by RSV: significantly inhibited
[2]; induced by RSV
  interleukin-6 production: significantly inhibited
  interleukin-8 production: significantly inhibited
